# Key:
# Format in all cases: in vivo
# female Balb/c mice = assay: Arachidonic acid-induced ear swelling; conditions: 100 μg/mouse IP 30 min prior to AA; 60 min after AA application
# Method: Experiments were performed using female Balb/c mice weighing 18-23 grams. Saline or 100 μg EX-2 or EX-3 was administered IP, 30 min prior to topical application of arachidonic acid (AA). A 10 μl pipet was used to apply 10 μl AA solution (100 mg/ml ethanol; Calbiochem-Novabiochem; San Diego Calif.) to the inner and outer surfaces of the right ear of each mouse. Ten μl ethanol, alone, was applied to the inner and outer surface of the left ear of each mouse.
# Ear thickness was measured with a hand-held spring loaded caliper immediately before and 60 min after AA application. Increase in ear thickness was calculated by subtracting the change observed in the control ear from the change observed in AA-treated ear. The value for each group (saline and control) is the average of the swelling observed in the individual mice in each group. The percent reduction of swelling is based on the swelling observed in the saline control group.
# male Sprague-Dawley rats = assay: Glomerulonephritis (nephrotoxic serum), albuminuria; conditions: EX-2 100 μg/kg per injection, 3 times per day; nephrotoxic serum iv
# Method: Male Sprague-Dawley rats (weight 194-248 g) were immunized by subcutaneous injection of 1 mg normal rabbit IgG (Sigma Chemical Co.) in Freund's complete adjuvant (Sigma Chemical Co.). EX-2 was administered 3 times per day (100 μg/kg per injection) throughout the duration of the experiment. Seven days later, the rats were injected with 1.5 ml of nephrotoxic serum iv via dorsal penile vein. Urine, plasma, and serum were collected before injection of nephrotoxic serum at 4, 6, 24, 48, and 96 hr thereafter. […] Albuminuria was quantified by immunoelectrophoresis.
# Male Shelton rabbits = assay: Morphine-induced respiratory depression; conditions: 10 + 20 + 20 μg/kg/rabbit iv; at end of experiment (80 min)
# Method: Male Shelton rabbits (3-4 kg) were restrained and fitted around the thorax, just behind the front limbs, with a respiration transducer (Model F-RCT; Grass Instruments; Quincy Mass.). The transducer was connected to a grass polygraph via an EKG cable. An intravenous line was established for drug administration by cannulating the marginal ear vein using a 25G butterfly needle.
# Rabbit breathing was allowed to stabilize, then. morphine sulfate (2 mg/kg in 0.5 ml saline) was administered by intravenous (iv) injection and respiratory rate and depth were monitored for 10 min. A second dose of morphine was administered, then, after 10 min, EX-2 or EX-3 (10 μg/kg in 0.5 ml saline) was administered, iv, and rabbits were monitored for 20 min. Two additional doses of EX-2 or EX-3 (20 μg/kg in 1.0 ml saline) were administered at 20 min intervals, i.e., 40 min and 60 min after the first morphine injection.
# Results were calculated as the percent change from baseline values and are expressed as the difference of the mean value of the treated group minus the mean value of the control group at the end of the experiment (80 min).
# IL-6 = assay: Reduction of LPS-induced interleukin-6 levels in mice; conditions: 300 μg/mouse; LPS treated mice; vs untreated control mice
# Method: Balb/c mice were grouped and treated as described in Example III, above. Blood samples were obtained from the orbital sinus at various times up to six hr and serum was collected and diluted as described above. A 100 μl aliquot was assayed for IL-6 levels using an IL-6-specific ELISA by a modification of the method of Starnes et al., J. Immunol. 145:4185-4194 (1990), which is incorporated herein by reference.
# The mean (±SEM) IL-6 level in six mice from each group was determined and the percent reduction in IL-6 was calculated.
# adult female Balb/c mice = assay: Carageenan-induced paw swelling; conditions: 1 μg/mouse; measured at the 2 hr time point
# Method: Carageenan-induced paw swelling was induced using a modification of the methods of Hiltz and Lipton, Peptides 11:979-982 (1990); Vinegar et al., Fed. Proc. 46:118-1.26 (1987); and Vinegar et al., J. Pharmacol. Expt. Therap. 166:96-103 (1969), each of which is incorporated herein by reference. Briefly, adult female Balb/c mice were anesthetized by IP injection of 7 mg/kg ketoamine and 0.6 mg/kg rompun. Foot pad thickness was measured using a spring loaded micrometer (Swiss Precision Instruments). Foot pad thickness was expressed in units of 1/100 inch. After baseline measurements were obtained, mice were injected into a hind foot pad with either 0.2 ml physiologic saline (control) or varying doses of EX-2 or EX-3 in 0.2 ml saline (treated). The first injection was followed immediately by injection of 0.02 ml of 0.15% κ-carageenan (Sigma Chemical Co.; St. Louis, Mo.).
# Hind foot pad thickness was measured hourly for six hr, the change in thickness was determined and the percent reduction in swelling due to treatment with EX-2 was calculated.
substance,measurement,setting,value
Ac-Nle-Gln-His-(D)Phe-Arg-(D)Trp-Gly-NH2 [EX-2],Reduction in arachidonic acid-induced Ear Swelling,female Balb/c mice,72%
same,"Glomerulonephritis: Albumin (mg/day), % Reduction of induced increase",male Sprague-Dawley rats,62%
same,Reduction in Morphine-induced Respiratory Depression,Male Shelton rabbits,50%
same,Reduction in IL-6 levels,IL-6,60%
same,Reduction in Carageenan-induced Paw Swelling,adult female Balb/c mice,45%
